According to patent US7345020B2, “Mimetics of CD4 that inhibit immune response” (Thomas Jefferson University, priority 1995, dated 2008):
Entries after “also recorded” stand apart in the source; their conditions may differ. Positions of bridges follow the written chain, without caps; N, C: chain ends. Residues, ends and D or L forms follow the SMILES beside them.

Legend:
[1] = system: experimental allergic encephalomyelitis (EAE); assay: EAE inhibition in vivo (SJL EAE model); set-up: species or system mouse; settings: for maximum mean EAE severity grade: SJL mice, 0.5 mg i.v. on day 12, 0-5 scale, untreated control maximum 2.0
Description: The C—C′ loop peptides were initially tested for efficacy in the SJL EAE model. In untreated animals, a high incidence of disease was observed 15-22 days after two s.c. inoculations of 1 mg of crude murine spinal cord homogenate in complete Freund's adjuvant. The severity of the disease was scored daily using the established 0-5 scale that describes the level of ascending paresis, Korngold, R., et al., 1986, Immunogenetics 24:309-315. The level of the mean EAE severity grade of mice for the untreated control group reached a maximum of 2.0. […] Also shown are the results of groups of mice that received the rD-mPGPtide, a mimic of residues 86-104 of murine homolog of CD4, which was described in Jameson et al. 1994, Nature 368:744-746.

[2] = system: human peripheral blood lymphocytes (responder cell alloreactive proliferation); settings: for activity of cyclic CNSNQIC compared with this linear peptide in human MLR: linear peptides derived from the same C—C′ region
Description: For this assay, fresh peripheral blood lymphocytes from two different donors are co-cultured; the cells of one donor were irradiated and served as stimulators. Proliferation of these activated T cells was measured by measuring the incorporation of ^3H-thymidine at various timepoints.
For human MLR, 50 ml of whole blood was collected into anti-coagulant (ACD, acid citrate dextrose) containing tubes. In 50 ml conical tubes, 20 ml of blood was layered over 20 ml Ficoll 1077 (Sigma Chemical Co., St. Louis, Mo.) and centrifuged at 2000 rpm for 35-40 min at 15-20° C. Buffy coats and serum were collected in 3× volume of PBS centrifuged at 1500 rpm for 15 min at 15-20° C. Supernatants were discarded, cells were washed 2× in 50 ml PBS and resuspended in RPMI supplemented with 10% heat-inactivated (56°, 30 min) human serum (cat# H4522, Sigma), 50 IU/ml pen/strep and 2 mM (1% of 200 mM stock) L-glutamine (both from BioWhitaker).
In a 96-well flat bottom plate 1×10^5 responders were plated with 2×10^5 irradiated (3000 rad) simulators/well (added in 100 μl each), and incubated for 6, 7 or 8 days at 37° C., 7% CO2. Peptide analogues were added to quadruplicate wells, at a concentration of 100 μM (5 mg/ml stock) or titrations thereof, immediately after cells were plated. For radiolabelling, the cells were incubated with 1 μCi [^3H] TdR/well (25 μl) (diluted from 1 mCi/ml stock, Amersham) for the final 6 hours of incubation. Cells were harvested using a fiberfilter cell harvester (e.g., Harvester 96, Tomtec) and counted in a Beta Counter of Beta plate reader (1205 BS Betaplate Liquid Scintillation Counter, Wallac) with scintillation fluid.

[3] = system: murine spleen responder cells with irradiated C3H stimulator cells; assay: Murine mixed lymphocyte reaction; type: cell-based, mouse; settings: in vitro
Description: Mice were sacrificed and spleens aseptically removed. Cell suspensions were made by gently pressing spleens through nylon mesh, washing cells with RPMI 1640 and hypotonic lysis of red blood cells. After 3 washes in RPMI 1640, cells were resuspended in complete medium (RPMI 1640, 10% heat inactivated FCS, 2 mM L-glutamine, penicillin/streptomycin) and 5×10^5 responder cells incubated with 1×10^5 stimulator cells (C3H spleen cells, 2000 rad irradiated) in triplicate in round bottom 96 well plates (final volume 200 μl), and incubated with the indicated concentration of peptide (0.01, 0.1, 1, 10, 100 and 1000 μM peptide) for 5 days at 37° C., 5% CO2. 1 μCi/WELL OF [^3H] TdR was added 12 hours before thymidine incorporation was measured. Labelled DNA from cells was harvested onto glass fiber filters with a PHD cell harvester (Cambridge, Mass.), and CPM determined by liquid scintillation counting with the use of a 1209 Rackbeta (LKB, Piscataway, N.J.).

CC[C@H](C)[C@@H]1NC(=O)[C@H](CCC(N)=O)NC(=O)[C@H](CC(N)=O)NC(=O)[C@H](CO)NC(=O)[C@H](CC(N)=O)NC(=O)[C@@H](N)CSSC[C@@H](C(=O)O)NC1=O [cyclic CNSNQIC, CNSNQIC] (H-CNSNQIC-OH; disulfide 1-7; N-terminus and C-terminus assumed)
maximum mean EAE severity grade [1]: 1.0
effect on EAE in mice, in words [1]: effective to ameliorate EAE; also recorded: inhibitor of EAE in mice
inhibition of human T cell activation (suppressive effect) ([2]; 3 h): 54.4%

CNSNQIC (linear, no disulfide) [linear CNSNQIC]
maximum mean EAE severity grade [1]: 1.0

KNSNQ
activity of cyclic CNSNQIC compared with this linear peptide in human MLR [2]: significantly higher activity

KNSNQI
activity of cyclic CNSNQIC compared with this linear peptide in human MLR [2]: significantly higher activity

NSNQI
activity of cyclic CNSNQIC compared with this linear peptide in human MLR [2]: significantly higher activity

YCNSNQIC
inhibitory activity in murine MLR, in words [3]: inhibitory activity comparable to the cyclic peptide CNSNQIC
effect on EAE in mice, in words [1]: inhibitory activity comparable to the cyclic peptide CNSNQIC
inhibitory activity in human MLR / human T cell proliferation, in words ([2]; in vitro): inhibitory activity comparable to the cyclic peptide CNSNQIC
